{"source": "patent US20150307841A1", "about": "“Composition for Promoting Differentiation and Proliferation of Neural Stem Cell and Neural Precursor Cell” (priority 2014, published 2015)", "key": {"[1]": {"test_system": "memory-deficient model rats", "assay": "Morris water maze test in memory-deficient model rats", "type": "in vivo, rat", "settings": "Experimental Example 2", "text": "Ibotenic acid is a neurotoxin present in mushrooms and is known to cause powerful damage to neurons when directly injected into the brain of mice or rats. In particular, because senile plaques and neuronal cell death appear in the entorhinal cortex and hippocampus in early Alzheimer's disease patients (Ueki A et al. J Neurol Sci, 1994), memory-deficient model rats were generated by injecting ibotenic acid (IBO) into the entorhinal cortex. The surgical protocol followed Heo H et al.'s method (J Ethnopharmacol, 2009) with some modifications. In the model animals, the injection of ibotenic acid induces cell death not only in the entorhinal cortex but also in the CA and DG regions of the hippocampus and impairs hippocampus-related learning and memory abilities.\nThe 6-week-old rats were anesthetized with equithesin (350 mM pentobarbital sodium, 250 mM chloral hydrate, 85 mM MgSO4 and 40% propylene glycol in 10% ethanol, 2 mL/kg). To induce cell death in the dentate gyrus and hippocampus in addition to the entorhinal cortex, ibotenic acid (1.5 μL per animal, 1 mg/mL) was injected into the entorhinal cortex as follows. The rat was placed in a stereotaxic device (Stoelting Co., Wood Dale, Ill., USA) with the incisor bar 3.4 mm below the interaural line. The needle was positioned 10° right to the midsaggital plane. […]\nFor each trial, the rat was allowed to swim for a maximum of 60 seconds to find the platform and to rest for 1 minute on the platform upon success. […] The swimming time and length of the trial were recorded and monitored using a video camera. […] The captured video images were analyzed by a video tracking system (EthoVision Water Maze program, Noldus Information Technology, Wageningen, the Netherlands). The analyzed information included the swimming time in the target quadrant and the number of virtual platform crossings to find the removed platform. […]"}, "[2]": {"test_system": "hippocampal neural precursor cells (NPCs)", "assay": "Ki67 immunostaining of cultured embryonic neural precursor cells (proliferation)", "type": "cell-based, rat", "text": "Pregnant Sprague-Dawley rats purchased from Orient Animal Breeding Center (a branch of Charles River Laboratories, Gyeonggi-do, Korea) were sacrificed by exposing to CO2 inhalation. Hippocampal neural precursor cells (NPCs) were isolated from the brain of the E16 rat embryo according to the method of Shin M H et al. (Exp Mol Med, 2002) with slight modifications.\nBriefly, hippocampi were aseptically dissected from the embryonic forebrain, mechanically dissociated in Ca^2+/Mg^2+-free Hank's balanced salt solution (HBSS) and then plated at 7×10^5 cells/cm^2 on 60-mm dishes pre-coated with 15 μg/mL poly-L-ornithine and 1 μg/mL fibronectin. The neural precursor cells were cultured in serum-free N2 media supplemented with 10 ng/mL bFGF in 5% CO2 for 3 days and then detached using 0.05% trypsin-ethylenediaminetetraacetic acid (EDTA). The neural precursor cells were plated on 12-mm cover glasses (Bellco Co., Vineland, N.J., USA) and cultured one more day in N2 media supplemented with 10 ng/mL bFGF in 5% CO2 (primary culturing).\nFollowing the primary culturing in (1), immunohistochemical analysis was conducted using Ki67 antibodies in order to confirm the effect of soyasaponin I on proliferation of the embryonic neural precursor cells. […]"}}, "data": [{"smiles": "C[C@@H]1O[C@@H](O[C@H]2[C@H](O[C@H]3[C@H](O[C@H]4CC[C@@]5(C)[C@@H](CC[C@]6(C)[C@@H]5CC=C5[C@@H]7CC(C)(C)C[C@@H](O)[C@]7(C)CC[C@]56C)[C@@]4(C)CO)O[C@H](C(=O)O)[C@@H](O)[C@@H]3O)O[C@H](CO)[C@H](O)[C@@H]2O)[C@H](O)[C@H](O)[C@H]1O", "note": "[soyasaponin I]", "values": [{"measurement": "Morris water maze number of crossings across the target probe", "setting": "[1]; probe trial session", "value": "recovery to almost those of the normal group"}, {"measurement": "Morris water maze swimming time in the target quadrant", "setting": "[1]; probe trial session", "value": "recovery to almost those of the normal group"}, {"measurement": "Morris water maze escape latency time compared to the ibotenic acid-administered group", "setting": "[1]; training trial, third and fourth days", "value": "decreased"}, {"measurement": "Increase in the number of proliferating (Ki67) cells compared with the normal group (Vehicle)", "setting": "[2]; 2 μM soyasaponin I", "value": 2.5, "unit": "fold"}, {"measurement": "Proliferation of the neural precursor cells (Ki67), concentration dependence", "setting": "[2]; 0.5, 1, 2 μM", "value": "increased rapidly"}]}]}
